From ChEMBL document CHEMBL3046559, “Sterile oat (Avena sterilis L.) cross-resistance profile to ACCase-inhibiting herbicides in Greece” (2012)

Tests used:
Format in all cases: functional
[1] = tested on: Avena sterilis; assay: Herbicidal activity against Avena sterilis accession P03 assessed as weed survival at 32 times field recommended herbicide dose
[2] = tested on: Avena sterilis; assay: Herbicidal activity against Avena sterilis accession P17 assessed as weed survival at 32 times field recommended herbicide dose
[3] = tested on: Avena sterilis; assay: Herbicidal activity against Avena sterilis accession P21S assessed as weed survival at 1/4 times field recommended herbicide dose
[4] = tested on: Avena sterilis; assay: Herbicidal activity against Avena sterilis accession P03 assessed as weed survival at 1 times field recommended herbicide dose
[5] = tested on: Avena sterilis; assay: Herbicidal activity against Avena sterilis accession P11 assessed as weed survival at 8 times field recommended herbicide dose
[6] = tested on: Avena sterilis; assay: Herbicidal activity against Avena sterilis accession P15 assessed as weed survival at 4 times field recommended herbicide dose
[7] = tested on: Avena sterilis; assay: Herbicidal activity against Avena sterilis accession P02 assessed as weed survival at 32 times field recommended herbicide dose
[8] = tested on: Avena sterilis; assay: Herbicidal activity against Avena sterilis accession P21S assessed as weed survival at 1/8 times field recommended herbicide dose
[9] = tested on: Avena sterilis; assay: Herbicidal activity against Avena sterilis accession P15 assessed as weed survival at 16 times field recommended herbicide dose
[10] = tested on: Avena sterilis; assay: Herbicidal activity against Avena sterilis accession P06S assessed as weed survival at 1/8 times field recommended herbicide dose
[11] = tested on: Avena sterilis; assay: Herbicidal activity against Avena sterilis accession P07 assessed as weed survival at 4 times field recommended herbicide dose
[12] = tested on: Avena sterilis; assay: Herbicidal activity against Avena sterilis accession P15 assessed as weed survival at 1 times field recommended herbicide dose
[13] = tested on: Avena sterilis; assay: Herbicidal activity against Avena sterilis accession P09 assessed as weed survival at 16 times field recommended herbicide dose
[14] = tested on: Avena sterilis; assay: Herbicidal activity against Avena sterilis accession P12 assessed as induction of weed mortality
[15] = tested on: Avena sterilis; assay: Herbicidal activity against Avena sterilis accession P20 assessed as induction of weed mortality
[16] = tested on: Avena sterilis; assay: Herbicidal activity against Avena sterilis accession P18 assessed as weed survival at 16 times field recommended herbicide dose
[17] = tested on: Avena sterilis; assay: Herbicidal activity against Avena sterilis accession P09 assessed as weed survival at 1 times field recommended herbicide dose
[18] = tested on: Avena sterilis; assay: Herbicidal activity against Avena sterilis accession P21S assessed as weed survival at 1 times field recommended herbicide dose
[19] = tested on: Avena sterilis; assay: Herbicidal activity against Avena sterilis accession P18 assessed as induction of weed mortality
[20] = tested on: Avena sterilis; assay: Herbicidal activity against Avena sterilis accession P09 assessed as weed survival at 32 times field recommended herbicide dose
[21] = tested on: Avena sterilis; assay: Herbicidal activity against Avena sterilis accession P12 assessed as weed survival at 16 times field recommended herbicide dose
[22] = tested on: Avena sterilis; assay: Herbicidal activity against Avena sterilis accession P08 assessed as weed survival at 16 times field recommended herbicide dose
[23] = tested on: Avena sterilis; assay: Herbicidal activity against Avena sterilis accession P07 assessed as induction of weed mortality
[24] = tested on: Avena sterilis; assay: Herbicidal activity against Avena sterilis accession P09 assessed as weed survival at 8 times field recommended herbicide dose
[25] = tested on: Avena sterilis; assay: Herbicidal activity against Avena sterilis accession P02 assessed as weed survival at 8 times field recommended herbicide dose
[26] = tested on: Avena sterilis; assay: Herbicidal activity against Avena sterilis accession P13S assessed as weed survival at 1/16 times field recommended herbicide dose
[27] = tested on: Avena sterilis; assay: Herbicidal activity against Avena sterilis accession P07 assessed as weed survival at 16 times field recommended herbicide dose
[28] = tested on: Avena sterilis; assay: Herbicidal activity against Avena sterilis accession P11 assessed as weed survival at 32 times field recommended herbicide dose
[29] = tested on: Avena sterilis; assay: Herbicidal activity against Avena sterilis accession P10S assessed as weed survival at 1 times field recommended herbicide dose
[30] = tested on: Avena sterilis; assay: Herbicidal activity against Avena sterilis accession P01 assessed as weed survival at 8 times field recommended herbicide dose
[31] = tested on: Avena sterilis; assay: Herbicidal activity against Avena sterilis accession P12 assessed as weed survival at 1 times field recommended herbicide dose
[32] = tested on: Avena sterilis; assay: Herbicidal activity against Avena sterilis accession P05 assessed as weed survival at 8 times field recommended herbicide dose
[33] = tested on: Avena sterilis; assay: Herbicidal activity against Avena sterilis accession P20 assessed as weed survival at 32 times field recommended herbicide dose
[34] = tested on: Avena sterilis; assay: Herbicidal activity against Avena sterilis accession P22 assessed as weed survival at 4 times field recommended herbicide dose
[35] = tested on: Avena sterilis; assay: Herbicidal activity against Avena sterilis accession P13S assessed as weed survival at 1 times field recommended herbicide dose
[36] = tested on: Avena sterilis; assay: Herbicidal activity against Avena sterilis accession P18 assessed as weed survival at 8 times field recommended herbicide dose
[37] = tested on: Avena sterilis; assay: Herbicidal activity against Avena sterilis accession P02 assessed as weed survival at 4 times field recommended herbicide dose
[38] = tested on: Avena sterilis; assay: Herbicidal activity against Avena sterilis accession P08 assessed as weed survival at 1 times field recommended herbicide dose
[39] = tested on: Avena sterilis; assay: Herbicidal activity against Avena sterilis accession P03 assessed as weed survival at 16 times field recommended herbicide dose
[40] = tested on: Avena sterilis; assay: Herbicidal activity against Avena sterilis accession P04 assessed as induction of weed mortality
[41] = tested on: Avena sterilis; assay: Herbicidal activity against Avena sterilis accession P17 assessed as weed survival at 4 times field recommended herbicide dose
[42] = tested on: Avena sterilis; assay: Herbicidal activity against Avena sterilis accession P13S assessed as induction of weed mortality
[43] = tested on: Avena sterilis; assay: Herbicidal activity against Avena sterilis accession P15 assessed as induction of weed mortality
[44] = tested on: Avena sterilis; assay: Herbicidal activity against Avena sterilis accession P06S assessed as weed survival at 1 times field recommended herbicide dose
[45] = tested on: Avena sterilis; assay: Herbicidal activity against Avena sterilis accession P20 assessed as weed survival at 1 times field recommended herbicide dose
[46] = tested on: Avena sterilis; assay: Herbicidal activity against Avena sterilis accession P17 assessed as weed survival at 1 times field recommended herbicide dose
[47] = tested on: Avena sterilis; assay: Herbicidal activity against Avena sterilis accession P18 assessed as weed survival at 32 times field recommended herbicide dose
[48] = tested on: Avena sterilis; assay: Herbicidal activity against Avena sterilis accession P05 assessed as induction of weed mortality
[49] = tested on: Avena sterilis; assay: Herbicidal activity against Avena sterilis accession P11 assessed as induction of weed mortality
[50] = tested on: Avena sterilis; assay: Herbicidal activity against Avena sterilis accession P21S assessed as weed survival at 1/16 times field recommended herbicide dose
[51] = tested on: Avena sterilis; assay: Herbicidal activity against Avena sterilis accession P10S assessed as weed survival at 1/8 times field recommended herbicide dose
[52] = tested on: Avena sterilis; assay: Herbicidal activity against Avena sterilis accession P03 assessed as induction of weed mortality
[53] = tested on: Avena sterilis; assay: Herbicidal activity against Avena sterilis accession P11 assessed as weed survival at 4 times field recommended herbicide dose
[54] = tested on: Avena sterilis; assay: Herbicidal activity against Avena sterilis accession P04 assessed as weed survival at 4 times field recommended herbicide dose
[55] = tested on: Avena sterilis; assay: Herbicidal activity against Avena sterilis accession P05 assessed as weed survival at 32 times field recommended herbicide dose
[56] = tested on: Avena sterilis; assay: Herbicidal activity against Avena sterilis accession P02 assessed as weed survival at 16 times field recommended herbicide dose
[57] = tested on: Avena sterilis; assay: Herbicidal activity against Avena sterilis accession P17 assessed as induction of weed mortality
[58] = tested on: Avena sterilis; assay: Herbicidal activity against Avena sterilis accession P14 assessed as weed survival at 32 times field recommended herbicide dose

Q: How did the Survival [1] turn out when `CCc1cc(C)cc(CC)c1-c1c(OC(=O)C(C)(C)C)n2n(c1=O)CCOCC2` [PINOXADEN] was run?
A: 0%

Q: What about the Survival [2] of the same compound?
A: 0%

Q: What about the Survival [3] of the same compound?
A: 20%

Q: What about the Survival [4] of the same compound?
A: 20%

Q: What about the Survival [5] of the same compound?
A: 0%

Q: And the Survival [6]?
A: 0%

Q: What about the Survival [7] of the same compound?
A: 0%

Q: What about the Survival [8] of the same compound?
A: 57%

Q: What about the Survival [9] of the same compound?
A: 0%

Q: What about the Survival [10] of the same compound?
A: 20%

Q: And the Survival [11]?
A: 0%

Q: What about the Survival [12] of the same compound?
A: 20%

Q: And the Survival [13]?
A: 0%

Q: What about the GR50 [14] of the same compound?
A: <40 gAi/ha

Q: What about the GR50 [15] of the same compound?
A: 42 gAi/ha

Q: And the Survival [16]?
A: 0%

Q: What about the Survival [17] of the same compound?
A: 0%

Q: What about the Survival [18] of the same compound?
A: 0%

Q: What about the GR50 [19] of the same compound?
A: <40 gAi/ha

Q: What about the Survival [20] of the same compound?
A: 0%

Q: And the Survival [21]?
A: 0%

Q: And the Survival [22]?
A: 0%

Q: And the GR50 [23]?
A: <40 gAi/ha

Q: What about the Survival [24] of the same compound?
A: 0%

Q: And the Survival [25]?
A: 0%

Q: And the Survival [26]?
A: 97%

Q: What about the Survival [27] of the same compound?
A: 0%

Q: What about the Survival [28] of the same compound?
A: 0%

Q: And the Survival [29]?
A: 0%

Q: What about the Survival [30] of the same compound?
A: 0%

Q: And the Survival [31]?
A: 0%

Q: What about the Survival [32] of the same compound?
A: 0%

Q: What about the Survival [33] of the same compound?
A: 0%

Q: And the Survival [34]?
A: 0%

Q: And the Survival [35]?
A: 0%

Q: And the Survival [36]?
A: 0%

Q: What about the Survival [37] of the same compound?
A: 0%

Q: What about the Survival [38] of the same compound?
A: 20%

Q: What about the Survival [39] of the same compound?
A: 0%

Q: And the GR50 [40]?
A: 74 gAi/ha

Q: What about the Survival [41] of the same compound?
A: 0%

Q: And the GR50 [42]?
A: 4.1 gAi/ha

Q: And the GR50 [43]?
A: <40 gAi/ha

Q: What about the Survival [44] of the same compound?
A: 0%

Q: And the Survival [45]?
A: 63%

Q: And the Survival [46]?
A: 0%

Q: What about the Survival [47] of the same compound?
A: 0%

Q: And the GR50 [48]?
A: <40 gAi/ha

Q: What about the GR50 [49] of the same compound?
A: <40 gAi/ha

Q: What about the Survival [50] of the same compound?
A: 97%

Q: And the Survival [51]?
A: 20%

Q: And the GR50 [52]?
A: <40 gAi/ha

Q: And the Survival [53]?
A: 0%

Q: And the Survival [54]?
A: 20%

Q: And the Survival [55]?
A: 0%

Q: What about the Survival [56] of the same compound?
A: 0%

Q: And the GR50 [57]?
A: <40 gAi/ha

Q: What about the Survival [58] of the same compound?
A: 0%

Q: What does the source list for `CCO/N=C(\CC)C1=C(O)CC(c2c(C)cc(C)cc2C)CC1=O` (stereo unspecified) [TRALKOXYDIM]?
A: Survival [1]: 17%; Survival [2]: 0%; Survival [3]: 33%; Survival [4]: 77%; Survival [5]: 0%; Survival [6]: 20%; Survival [7]: 0%; Survival [8]: 77%; Survival [9]: 20%; Survival [10]: 30%; Survival [11]: 20%; Survival [12]: 70%; Survival [13]: 0%; GR50 [14]: <400 gAi/ha; GR50 [15]: 2916 gAi/ha; Survival [16]: 0%; Survival [17]: 60%; Survival [18]: 20%; GR50 [19]: <400 gAi/ha; Survival [20]: 0%; Survival [21]: 0%; Survival [22]: 0%; GR50 [23]: <400 gAi/ha; Survival [24]: 0%; Survival [25]: 20%; Survival [26]: 67%; Survival [27]: 0%; Survival [28]: 0%; Survival [29]: 0%; Survival [30]: 20%; Survival [31]: 13%; Survival [32]: 10%; Survival [33]: 20%; Survival [34]: 40%; Survival [35]: 0%; Survival [36]: 0%; Survival [37]: 40%; Survival [38]: 63%; Survival [39]: 20%; GR50 [40]: 7591 gAi/ha; Survival [41]: 20%; GR50 [42]: 34 gAi/ha; GR50 [43]: 735 gAi/ha; Survival [44]: 0%; Survival [45]: 97%; Survival [46]: 50%; Survival [47]: 0%; GR50 [48]: <400 gAi/ha; GR50 [49]: <400 gAi/ha; Survival [50]: 80%; Survival [51]: 30%; GR50 [52]: 1561 gAi/ha; Survival [53]: 0%; Survival [54]: 77%; Survival [55]: 0%; Survival [56]: 0%; GR50 [57]: 412 gAi/ha; Survival [58]: 0%
